Measured values taken from patent publication EP1202120A2, “Charge transport compound, elctrophotographic organophotoreceptor comprising the same, and electrographic imaging apparatus and method” (SAMSUNG ELECTRONICS CO., LTD., priority 2000, dated 2002).
Entries after “also recorded” stand apart in the source; their conditions may differ.

Assays:
[1] = Ionization potential by electron photoemission in air; assay type: physicochemical; settings: CTM layer without binder; error ±0.03 eV
Method: Samples for ionization potential (Ip) measurements were prepared by dissolving compounds (B), (C), (E), (F), (G), and (H) and Comparative Example A separately in tetrahydrofuran. Each solution was hand-coated on an aluminized polyester substrate that was precision coated with a methylcellulose-based adhesive sub-layer to form a charge transport material (CTM) layer. The role of this sub-layer was to improve adhesion of the CTM layer, to retard crystallization of CTM, and to eliminate the electron photoemission from the Al layer through possible CTM layer defects. No photoemission was detected from the Al layer through the sub-layer at illumination with up to 6.4 eV quantum energy light. In addition, the adhesive sub-layer was conductive enough to avoid charge accumulation on it during measurement. The thickness of both the sub-layer and CTM layer was about 0.4 µm. No binder material was used in the preparation of the samples for Ip measurements. In most cases, the thin CTM layers were in a meta-stable amorphous phase, delaying crystallization for several hours, so that the measurement of the samples was possible.
The ionization potential was measured by the electron photoemission in an air method similar to that described in "Ionization Potential of Organic Pigment Film by Atmospheric Photoelectron Emission Analysis", Electrophotography, 28, No. 4, p. 364. (1989) by E. Miyamoto, Y. Yamaguchi, and M. Yokoyama, which is hereby incorporated by reference. The samples were illuminated with monochromatic light from a quartz monochromator with a deuterium lamp source. The power of the incident light beam was 2-5×10^-8 W. The negative voltage of -300 V was supplied to the sample substrate. The counter-electrode with the 4.5×15 mm^2 slit for illumination was placed at 8 mm distance from the sample surface. The counter-electrode was connected to the input of the BK2-16 type electrometer, working in the open input regime, for the photocurrent measurement. A photocurrent of 10^-15-10^-12 amp was flowed in the circuit under illumination. The photocurrent, I, was strongly dependent on the incident light photon energy hν. The I^0.5=f(hν) dependence was plotted. Usually the dependence of the square root of photocurrent on incident light quantum energy is well described by linear relationship near the threshold [see references "Ionization Potential of Organic Pigment Film by Atmospheric Photoelectron Emission Analysis", Electrophotography, 28, No. 4, p. 364. (1989) by E. Miyamoto, Y. Yamaguchi, and M. Yokoyama; and "Photoemission in Solids", Topics in Applied Physics, 26, 1-103. (1978) by M. Cordona and L. Ley]. The linear part of this dependence was extrapolated to the hν axis, and Ip value was determined as the photon energy at the interception point.

[2] = Thermal transitions by differential scanning calorimetry (glass transition temperature); assay type: physicochemical; settings: DSC; for Tg with 50% PCZ: mixture with Polycarbonate Z binder; for Tg without binder: neat sample
Method: Thermal transition data for various charge transport compounds was collected using a TA Instruments Model 2929 Differential Scanning Calorimeter (New Castle, DE) equipped with a DSC cooling system (-70°C minimum temperature limit), and dry helium and nitrogen exchange gases. The calorimeter ran on a Thermal Analyst 2100 workstation with version 8.10B software. An empty aluminum pall was used as the reference.
Samples were tested both neat and as a mixture with Polycarbonate Z ("PCZ"). The neat samples were prepared by placing 4.0 to 8.0 mg of neat charge transport material into an aluminum sample pan and crimping the upper lid to produce a hermetically sealed sample for DSC testing. The results were normalized on a unit mass basis.
The Polycarbonate Z-mixed samples were prepared by filling the bottom portion of the aluminum sample pan with a 15-20% solid solution of the charge transport material in Polycarbonate Z, followed by air-drying overnight. Each air-dried sample was then placed in a convection oven at 50-55°C for 24-48 hours to fully remove the solvent, after which the upper sample lid was crimped on to produce a sealed sample for DSC testing. Each sample size was in the range of 7.0-15.0 mg. The results were normalized on a unit mass basis.
Each sample was subjected to the following protocol to evaluate its thermal transition behavior: • 1. Equilibrate at 0°C (Default--Nitrogen Heat Exchange Gas); • 2. Isothermal for 5 min.; • 3. External Event: Nitrogen Heat Exchange Gas; • 4. Ramp 10.0°C/min to a temperature 30°C above the melting point of the charge transport material; • 5. External Event: Helium Heat Exchange Gas; • 6. Isothermal for 5 min.; • 7. Ramp 10.0°C/min to 0°C; • 8. External Event: Nitrogen Heat Exchange Gas; • 9. Isothermal for 5 min.; • 10. Ramp 10.0°C/min to a temperature 40°C above the melting point of the charge transport material; • 11. External Event: Helium Heat Exchange Gas; • 12. Isothermal for 5 min.; • 13. Ramp 10.0°C/min to 0°C; • 14. External Event: Nitrogen Heat Exchange Gas; • 15. Isothermal for 5 min; • 16. Ramp 10.0°C/min to 275°C.
The first cycle (steps 1-7) is used to (a) remove the thermal history of the sample, (b) obtain the melting transition for crystalline charge transport materials, and (c) obtain a homogeneous charge transport material/Polycarbonate Z mixture in the event the charge transport material is crystallized during sample preparation. A homogeneous mixture can be obtained as long as the charge transport material (molten or casted) is miscible with the Polycarbonate-Z.
The second cycle (steps 8-13) is used to identify the glass transition temperature and the recrystallization or melting transitions of charge transport materials.
The third cycle (steps 14-16) is used to report the final thermal transitions.
All temperatures are reported in °C. The abbreviation "CTM" indicates charge transport compounds. The abbreviation "PCZ" indicates the Polycarbonate Z binder.

[3] = Solubility testing in tetrahydrofuran at room temperature; settings: tetrahydrofuran as solvent
Method: Solubility testing was performed for individual charge transport compounds at room temperature using tetrahydrofuran as a solvent. The solubility was determined as the percent solids of saturated solution. In general, it is desirable to maximize the solubility value.

Structure (SMILES) | lp (ionization potential) [1] | Tg with 50% PCZ [2] | Tg without binder [2] | Solubility [3]
CCn1c2ccccc2c2cc(C=NN(CCCCCCCCCCN(N=Cc3ccc4c(c3)c3ccccc3n4CC)c3ccccc3)c3ccccc3)ccc21 [B] | 5.44 eV | 83.7 °C | 46 °C | 
CCn1c2ccccc2c2cc(C=NN(CCCCCN(N=Cc3ccc4c(c3)c3ccccc3n4CC)c3ccccc3)c3ccccc3)ccc21 [C] | 5.34 eV | 102.5 °C | 84.4 °C | 
CCn1c2ccccc2c2cc(C=NN(CCCCN(N=Cc3ccc4c(c3)c3ccccc3n4CC)c3ccccc3)c3ccccc3)ccc21 [D] |  |  | 79.1 °C | 
CCCCCCCn1c2ccccc2c2cc(C=NN(CCCCCCCCCCN(N=Cc3ccc4c(c3)c3ccccc3n4CCCCCCC)c3ccccc3)c3ccccc3)ccc21 [E] | 5.38 eV | 56.9 °C | 29.3 °C | 
CCCCCCCn1c2ccccc2c2cc(C=NN(CCCCCN(N=Cc3ccc4c(c3)c3ccccc3n4CCCCCCC)c3ccccc3)c3ccccc3)ccc21 [F] | 5.23 eV | 78.3 °C | 44.5 °C | 
CCCCn1c2ccccc2c2cc(/C=N/N(CCCCCCN(/N=C/c3ccc4c(c3)c3ccccc3n4CCCC)c3ccccc3)c3ccccc3)ccc21 [H] | 5.35, layer with crystal inclusions eV |  |  | limited solubility; also recorded: Insoluble
